Assay results as given in US5981577A, “α-methylene peperomins and halogenated derivatives thereof” (Development Center for Biotechnology, priority 1998, dated 1999).
Converted amounts (≈) assume the structure as drawn. Read-outs that look alike come from different tables or passages of the source.

How the values were obtained:
[1] = test system: COLO 205; assay: in vitro cytotoxicity by the MTT assay, COLO 205; type: cell-based, human
Procedure: (§1) Compounds 1-9 were evaluated for in vitro cytotoxicity by the MTT assay, against four types of human tumor cell lines, including COLO 205, HA22T, SKBR3, and MOLT-4.
(§2) COLO 205 was grown as a monolayer in RPMI 1640 (Gibco) with 10% fetal serum (FBS, Hyclon). HA22T/VGH was grown as a monolayer in DMEM/F12 medium (Gibco) supplemented with 10% FBS and […] nonessential amino acid (Gibco, BRL). SKBr3 was grown as a monolayer in DMEM/F12 medium (Gibco) with 10% FCS and 1% penicillin/streptomycin (Gibco, BRL). MOLT-4 was grown as a suspension cell line in RPMI 1640 supplemented with 10% FCS and 1% penicillin/streptomycin (Gibco, BRL). Exponentially growing cell cultures were maintained in a humidified incubator (NAPCO, Model 5410) with an atmosphere of 5% CO2 -95% air at 37° C.
(§3) In principle, the assay is dependent on the cellular reduction of MTT (Sigma Chemical Co.) by the mitochondrial dehydrogenase of viable cells to a dark blue formazan product. The viable cell number is directly proportional to the production of formazan, which can be measured spectrophotometrically following solubilization.
(§4) Single cell suspensions were obtained by mechanical disaggregation of the floating cell line (MOLT-4) and by trypsinization of the monolayer cultures (COLO 205, HA22T/VGH, SKBr3) and counted by trypan blue exclusion. The cell suspensions (180 μl) were added into 96-well microtiter plates (Nunc 67008) using a multichannel pipette, and the incubation was allowed for 24 h.
(§5) Each test compound was dissolved in a 10% DMSO (Sigma, D-8779) and 90% DPBS solution. 20 μl of this solution was dispensed to each microtiter plate well, and diluted to give final concentrations ranging from 100 μg/ml to 0.01 μg/ml by 10-fold dilutions. The cells were then incubated in the presence of the drug (the test compound) for a further 72 h. At the end of this time, 20 μl of a MTT solution (5 mg/ml) was added to each well and the incubation was allowed a further 4 h. After this time, the culture plates containing suspension lines or any detached cells were centrifuged at a low speed of 1000 rpm for 5 min. 170 μl of the culture medium supernatant was removed from each well and replaced by 200 μl of DMSO. After the solubilization of formazans, the optical density was then read by an automated spectrophotometric plate reader (ELISA, Molecular Device Emax) at a wavelength of 545-690 nm. Readings were transferred to a microcomputer and final reports were generated using especially developed software.

[2] = test system: HA22T; assay: in vitro cytotoxicity by the MTT assay, HA22T; type: cell-based, human; settings: 72 h
Procedure: as §1, §2, §3, §4, §5

[3] = test system: MOLT-4; assay: in vitro cytotoxicity by the MTT assay, MOLT-4; type: cell-based, human
Procedure: as §1, §2, §3, §4, §5

[4] = test system: SKBR3; assay: in vitro cytotoxicity by the MTT assay, SKBR3; type: cell-based, human
Procedure: as §1, §2, §3, §4, §5

[5] = test system: leukemia cells; settings: versus other solid tumor cells; cited from earlier work
[6] = Homo sapiens, COLO 205, MTT, 72 h, read-out: IC50
[7] = Homo sapiens, MTT, read-out: IC50
[8] = Homo sapiens, MOLT-4, MTT, 72 h, read-out: IC50
[9] = Homo sapiens, SK-BR-3, SKBR3, MTT, 72 h, read-out: IC50

Compound	IC50 ([1]; COLO 205, MTT, 72 h) [µg/mL]	IC50 ([2]; MTT) [µg/mL]	IC50 ([3]; MOLT-4, MTT, 72 h) [µg/mL]	IC50 ([4]; SKBR3, MTT, 72 h) [µg/mL]	IC50 [1, 6] [µg/mL]	IC50 [2, 7] [µg/mL]	IC50 [3, 8] [µg/mL]	IC50 [4, 9] [µg/mL]	other results
2-Bromomethyl-3-[1-(2(or 6)-bromo-3,4-methylenedioxy)-phenyl-1'-(2-bromo-3,4,5-trimethoxy)phenyl]methyl γ-butyrolactone [Compound 9]	5.6	5.7	5.8	4.5	–	–	–	–	–
2-Methylene-3-[1-(2(or 6)-bromo-3,4-methylenedioxy)-phenyl-1'-(2-bromo-3,4,5-trimethoxy)phenyl]methyl γ-butyrolactone [Compound 5]	6.8	5.9	3.9	5.3	–	–	–	–	–
COc1cc(C(c2cc(OC)c(OC)c(OC)c2Br)[C@H]2COC(=O)[C@@H]2CBr)c(Br)c(OC)c1OC (relative stereo) [Compound 2, 2-Bromomethyl-3-[bis(2-bromo-3,4,5-trimethoxy)phenyl]-methyl γ-butyrolactone]	–	–	–	–	5 (≈ 7.32 µM)	6.6 (≈ 9.66 µM)	3.1 (≈ 4.54 µM)	3.7 (≈ 5.42 µM)	–
COc1cc(C(c2cc(OC)c(OC)c(OC)c2Br)[C@@H]2COC(=O)[C@@H]2CBr)c(Br)c(OC)c1OC (relative stereo) [Compound 4, 2-Bromomethyl-3-[bis(2-bromo-3,4,5-trimethoxy)phenyl]-methyl γ-butyrolactone]	–	–	–	–	4.2 (≈ 6.15 µM)	6.4 (≈ 9.37 µM)	4.9 (≈ 7.17 µM)	4.9 (≈ 7.17 µM)	–
C=C1C(=O)OCC1C(c1cc(OC)c(OC)c(OC)c1)c1cc(OC)c(OC)c(OC)c1 (stereo not drawn) [Compound 1, 2-Methylene-3-[bis(3,4,5-trimethoxy)phenyl]methyl γ-butyrolactone]	–	–	–	–	2.3 (≈ 5.17 µM)	7.1 (≈ 16 µM)	2.8 (≈ 6.3 µM)	4 (≈ 9 µM)	–
C=C1C(=O)OCC1C(c1ccc2c(c1)OCO2)c1cc(OC)c(OC)c(OC)c1 (stereo not drawn) [Compound 3, 2-Methylene-3-[1-(3,4-methylenedioxy)phenyl-1'-(3,4,5-trimethoxy)phenyl]methyl γ-butyrolactone]	–	–	–	–	5.8 (≈ 14.6 µM)	6.4 (≈ 16.1 µM)	4.3 (≈ 10.8 µM)	4.6 (≈ 11.5 µM)	–
C=C1C(=O)OCC1C(c1cc(OC)c(OC)c(OC)c1Br)c1cc(OC)c(OC)c(OC)c1Br (stereo not drawn) [Compound 6, 2-Methylene-3-[bis(2-bromo-3,4,5-trimethoxy)phenyl]methyl γ-butyrolactone]	–	–	–	–	6.7 (≈ 11.1 µM)	5.9 (≈ 9.8 µM)	4.3 (≈ 7.14 µM)	3.7 (≈ 6.14 µM)	–
C=C1C(=O)OCC1C(c1cc(OC)c(OC)c(OC)c1)c1cc(OC)c2c(c1)OCO2 (stereo not drawn) [Compound 7, 2-Methylene-3-[1-(3,4-methylenedioxy-5-methoxy)phenyl-1'-(3,4,5-trimethoxy)phenyl]methyl γ-butyrolactone]	–	–	–	–	4.4 (≈ 10.3 µM)	7.1 (≈ 16.6 µM)	3 (≈ 7 µM)	4.6 (≈ 10.7 µM)	–
COc1cc(C(c2cc(OC)c3c(c2Br)OCO3)C2COC(=O)C2CBr)c(Br)c(OC)c1OC (stereo not drawn) [Compound 8, 2-Bromomethyl-3-[1-(2(or 6)-bromo-3,4-methylenedioxy-5-methoxy)phenyl-1'-(2-bromo-3,4,5-trimethoxy)phenyl]methyl γ-butyrolactone]	6.1 (≈ 9.14 µM)	5.8 (≈ 8.69 µM)	1.5 (≈ 2.25 µM)	4.3 (≈ 6.45 µM)	–	–	–	–	–
COc1cccc2c1C(=O)c1c(O)c3c(c(O)c1C2=O)C[C@@](O)(C(=O)CO)C[C@@H]3O[C@H]1C[C@H](N)[C@H](O)[C@H](C)O1 [DOXORUBICIN, reference compound]	–	–	–	–	–	–	–	–	IC50 ([1]; Homo sapiens, COLO 205, 72 h): 0.2 µg/mL (≈ 0.368 µM); hypersensitivity towards leukemia cells [5]: hypersensitivity towards leukemia cells versus other solid tumor cells; IC50 ([2]; Homo sapiens): 0.2 µg/mL (≈ 0.368 µM); IC50 ([3]; Homo sapiens, MOLT-4, 72 h): 0.01 µg/mL (≈ 0.0184 µM); hypersensitivity to MOLT-4 leukemia cell line ([3]; as compared to other solid tumor cells): hypersensitivity towards leukemia cells as compared to other solid tumor cells; IC50 ([4]; Homo sapiens, SK-BR-3, 72 h): 0.1 µg/mL (≈ 0.184 µM)
